{"source": "ChEMBL document CHEMBL3758130", "about": "“Effect of Chicoric Acid on Mast Cell-Mediated Allergic Inflammation in Vitro and in Vivo” (J Nat Prod, 2015)", "key": {"HMC1 [1]": {"system": "HMC1", "assay": "Antiinflammatory activity in HMC1 cells assessed as suppression of PMACI-induced TNF-alpha production pretreated for 30 mins followed by addition of PMACI incubated for 24 hrs by enzyme immunoassay", "details": "Homo sapiens"}, "[2]": {"assay": "Effect on JNK level in HMC1 cells at 12.5 to 50 uM pretreated for 30 mins followed by addition of PMACI incubated for 15 mins by Western blot analysis", "format": "cell-based", "details": "human, hmc1, 0.25 h"}, "[3]": {"assay": "Cytotoxicity against HMC1 cells at 6.25 to 50 uM after 24 hrs by MTT assay", "format": "cell-based", "details": "human, hmc1, 24 h"}, "[4]": {"assay": "Effect on ERK level in HMC1 cells at 12.5 to 50 uM pretreated for 30 mins followed by addition of PMACI incubated for 15 mins by Western blot analysis", "format": "cell-based", "details": "human, hmc1, 0.25 h"}, "HMC1 [5]": {"system": "HMC1", "assay": "Antiinflammatory activity in HMC1 cells assessed as suppression of pro-caspase-1 degradation pretreated for 30 mins followed by addition of PMACI incubated for 15 mins by Western blot analysis", "details": "Homo sapiens"}, "[6]": {"biological_target": "T1, NF-kappa-B inhibitor alpha (Homo sapiens) (UniProt P25963)", "T1 sequence (whole entry)": "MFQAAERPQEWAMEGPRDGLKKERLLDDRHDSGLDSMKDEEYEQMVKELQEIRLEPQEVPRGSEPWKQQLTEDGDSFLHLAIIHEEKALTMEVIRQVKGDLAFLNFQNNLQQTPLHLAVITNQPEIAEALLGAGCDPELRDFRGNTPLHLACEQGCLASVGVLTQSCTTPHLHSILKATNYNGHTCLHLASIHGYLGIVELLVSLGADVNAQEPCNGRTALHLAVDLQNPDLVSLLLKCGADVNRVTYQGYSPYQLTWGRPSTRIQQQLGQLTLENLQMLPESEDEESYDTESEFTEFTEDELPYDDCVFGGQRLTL", "assay": "Inhibition of PMACI-induced degradation of IkappaB-alpha in HMC1 cells at 12.5 to 50 uM pretreated for 30 mins followed by addition of PMACI incubated for 15 mins by Western blot analysis"}, "[7]": {"biological_target": "c-Jun N-terminal kinase, JNK (Homo sapiens) (UniProt P45983+P53779+P45984)", "assay": "Inhibition of PMACI-induced phosphorylation of JNK in HMC1 cells at 12.5 to 50 uM pretreated for 30 mins followed by addition of PMACI incubated for 15 mins by Western blot analysis"}, "HMC1 [8]": {"system": "HMC1", "assay": "Antiinflammatory activity in HMC1 cells assessed as suppression of PMACI-induced IL-6 production pretreated for 30 mins followed by addition of PMACI incubated for 24 hrs by enzyme immunoassay", "details": "Homo sapiens"}, "Mus musculus [9]": {"system": "Mus musculus", "assay": "Antiinflammatory activity in ICR male mouse assessed as reduction in compound 48/80-induced serum histamine level at 20 mg/kg, ip dosed 1 hr prior to anaphylactic shock by enzymeimmunoassay"}, "HMC1 [10]": {"system": "HMC1", "assay": "Antiinflammatory activity in HMC1 cells assessed as suppression of PMACI-induced TNF-alpha mRNA expression pretreated for 30 mins followed by addition of PMACI incubated for 6 hrs by qRT-PCR analysis", "details": "Homo sapiens"}, "[11]": {"assay": "Effect on IKKalpha/beta level in HMC1 cells at 12.5 to 50 uM pretreated for 30 mins followed by addition of PMACI incubated for 15 mins by Western blot analysis", "format": "ADME, cell-based", "details": "human, hmc1, 0.25 h"}, "[12]": {"biological_target": "Inhibitor of NF-kappa-B kinase alpha/beta (Homo sapiens) (UniProt O14920+O15111)", "assay": "Inhibition of PMACI-induced phosphorylation of IKKalpha/beta in HMC1 cells at 12.5 to 50 uM pretreated for 30 mins followed by addition of PMACI incubated for 15 mins by Western blot analysis"}, "HMC1 [13]": {"system": "HMC1", "assay": "Inhibition of PMACI-induced phosphorylation of ERK in HMC1 cells at 12.5 to 50 uM pretreated for 30 mins followed by addition of PMACI incubated for 15 mins by Western blot analysis", "details": "Homo sapiens"}, "[14]": {"biological_target": "T1, NF-kappa-B inhibitor alpha (Homo sapiens)", "assay": "Inhibition of PMACI-induced phosphorylation of IkappaB-alpha in HMC1 cells at 12.5 to 50 uM pretreated for 30 mins followed by addition of PMACI incubated for 15 mins by Western blot analysis"}, "[15]": {"assay": "Effect on p38 level in HMC1 cells at 12.5 to 50 uM pretreated for 30 mins followed by addition of PMACI incubated for 15 mins by Western blot analysis", "format": "ADME, cell-based", "details": "human, hmc1, 0.25 h"}, "[16]": {"biological_target": "MAP kinase p38 (Homo sapiens) (UniProt O15264+Q15759+Q16539+P53778)", "assay": "Inhibition of PMACI-induced phosphorylation of p38 in HMC1 cells at 12.5 to 50 uM pretreated for 30 mins followed by addition of PMACI incubated for 15 mins by Western blot analysis"}, "Mus musculus [17]": {"system": "Mus musculus", "assay": "Antiinflammatory activity in ICR male mouse assessed as reduction in compound 48/80-induced mortality rate at 20 mg/kg, ip dosed 1 hr prior to anaphylactic shock measured for 1 hr"}, "HMC1 [18]": {"system": "HMC1", "assay": "Antiinflammatory activity in HMC1 cells assessed as suppression of PMACI-induced IL-1beta mRNA expression pretreated for 30 mins followed by addition of PMACI incubated for 6 hrs by qRT-PCR analysis", "details": "Homo sapiens"}, "HMC1 [19]": {"system": "HMC1", "assay": "Antiinflammatory activity in HMC1 cells assessed as suppression of PMACI-induced IL-1beta production pretreated for 30 mins followed by addition of PMACI incubated for 24 hrs by enzyme immunoassay", "details": "Homo sapiens"}, "[20]": {"biological_target": "RAC-alpha serine/threonine-protein kinase (Homo sapiens) (UniProt P31749)", "sequence (P31749 whole entry)": "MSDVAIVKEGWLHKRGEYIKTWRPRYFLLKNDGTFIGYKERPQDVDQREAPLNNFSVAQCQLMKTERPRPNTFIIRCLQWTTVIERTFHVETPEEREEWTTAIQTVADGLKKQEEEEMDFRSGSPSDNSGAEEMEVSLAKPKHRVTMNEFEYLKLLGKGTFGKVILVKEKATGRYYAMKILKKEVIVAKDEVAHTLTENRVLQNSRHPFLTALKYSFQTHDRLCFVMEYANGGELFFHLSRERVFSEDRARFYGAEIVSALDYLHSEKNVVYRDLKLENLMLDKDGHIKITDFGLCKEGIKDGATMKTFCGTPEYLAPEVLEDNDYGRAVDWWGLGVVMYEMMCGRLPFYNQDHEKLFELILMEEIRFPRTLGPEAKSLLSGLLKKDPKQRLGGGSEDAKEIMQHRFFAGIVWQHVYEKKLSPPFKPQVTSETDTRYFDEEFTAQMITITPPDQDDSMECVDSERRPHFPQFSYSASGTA", "assay": "Inhibition of PMACI-induced phosphorylation of Akt at […] in HMC1 cells at 12.5 to 50 uM pretreated for 30 mins followed by addition of PMACI incubated for 5 mins by Western blot analysis"}, "[21]": {"assay": "Effect on Akt level in HMC1 cells at 12.5 to 50 uM pretreated for 30 mins followed by addition of PMACI incubated for 5 mins by Western blot analysis", "format": "ADME, cell-based", "details": "human, hmc1, 5 min"}, "HMC1 [22]": {"system": "HMC1", "assay": "Antiinflammatory activity in HMC1 cells assessed as suppression of PMACI-induced IL-6 mRNA expression pretreated for 30 mins followed by addition of PMACI incubated for 6 hrs by qRT-PCR analysis", "details": "Homo sapiens"}}, "note": "Active and inactive are the calls of the source. The calls are words filed in the database; no cut-off is given here.", "data": [{"smiles": "O=C(/C=C/c1ccc(O)c(O)c1)O[C@@H](C(=O)O)[C@@H](OC(=O)/C=C/c1ccc(O)c(O)c1)C(=O)O", "note": "[CICHORIC ACID]", "values": [{"measurement": "Activity", "setting": "HMC1 [1]", "value": "Dose-dependent effect"}, {"measurement": "Activity", "setting": "[2]", "value": "Non-toxic"}, {"measurement": "Activity", "setting": "[3]", "value": "Non-toxic"}, {"measurement": "Activity", "setting": "[4]", "value": "Non-toxic"}, {"measurement": "Activity", "setting": "HMC1 [5]", "value": "Active"}, {"measurement": "inhibition", "setting": "[6]", "value": "Active"}, {"measurement": "inhibition", "setting": "[7]", "value": "inactive"}, {"measurement": "Activity", "setting": "HMC1 [8]", "value": "Dose-dependent effect"}, {"measurement": "Activity", "setting": "Mus musculus [9]", "value": "Active"}, {"measurement": "Activity", "setting": "HMC1 [10]", "value": "Dose-dependent effect"}, {"measurement": "Activity", "setting": "[11]", "value": "Non-toxic"}, {"measurement": "inhibition", "setting": "[12]", "value": "Active"}, {"measurement": "inhibition", "setting": "HMC1 [13]", "value": "inactive"}, {"measurement": "inhibition", "setting": "[14]", "value": "Active"}, {"measurement": "Activity", "setting": "[15]", "value": "Non-toxic"}, {"measurement": "inhibition", "setting": "[16]", "value": "inactive"}, {"measurement": "Activity", "setting": "Mus musculus [17]", "value": "Active"}, {"measurement": "Activity", "setting": "HMC1 [18]", "value": "Dose-dependent effect"}, {"measurement": "Activity", "setting": "HMC1 [19]", "value": "Dose-dependent effect"}, {"measurement": "inhibition", "setting": "[20]", "value": "Active"}, {"measurement": "Activity", "setting": "[21]", "value": "Non-toxic"}, {"measurement": "Activity", "setting": "HMC1 [22]", "value": "Dose-dependent effect"}]}]}
